Legend:
LHN-R cells = assay: 13-cisRA response (neurite outgrowth, cell cycle) of resistant LHN-R cells; type: cell-based, human
Excerpt: (§1) FIGS. 4A and 4B provide data showing that protein expression of c-MYC and MYCN in patient-derived neuroblastoma cell lines established from clinical samples collected at diagnosis (Dx) (FIG. 4A) and progressive disease 5 (PD) (FIG. 4B). CHLA-20 and SK—N-BE(2) were used as the positive controls for c-MYC and MYCN. FIG. 4C1 and FIG. 4C2 show dot plots quantitating immunoblotting (IB) data in FIGS. 4A and 4B. The values were normalized in two ways by the intensity of specific proteins in CHLA-20 for c-MYC or SK—N-BE(2) for MYCN and GAPDH. […] Cells were treated with 5 μM 13-cisRA for 14 days. […] Triplicate samples of 10,000 events were collected as single cells for the analyses. […] Relative quantitation (2^−ΔΔCT) was used for the analyses of mRNA expression. […] LDH (cytosolic protein) and Lamin A/C (nuclear protein) were used as fractionation quality controls.
MetLuc enzymatic activity was measured. CMV immediate early promoter (pCMV IE) was a positive control. […] Left: Locations of the four sets of amplicons (a, b, c, and d) used to detect ChIP-enriched DNA fragments in the MYC enhancer region shown relative to the transcription start site (arrow). Right: PCR results detecting enriched fragments from ChIP assays of each of the 4 amplicons using ChIP-grade OCT4-1 and OCT4-2 antibodies or control normal rabbit IgG antibody. […] Cells were imaged by confocal microscopy. Blue: DAPI stained nucleus, Green: Phalloidin.
FIGS. 6A-6G show OCT4 interacting proteins by protein identification (ID) and post-translational modification (PTM) and verification of the protein expression and the role of the interacting MK2 protein in 13-cisRA resistance. […] M: Marker, C: cytosolic, N: nuclear. For protein ID, the entire lanes were analyzed, and for PTM, the specific OCT4 band was subjected to mass spectrometry analyses. (Right) OCT4 protein sequence with PTM status identified by mass spectrometry. Underline: mass spectrometry coverage, Green: not phosphorylated or acetylated, Red: phosphorylated, acetylated, or undetermined. […] The direct interaction between OCT4 and MK2 is also confirmed by Ni-NTA pull down (Middle) or immunoprecipitation by FLAG (Right) using purified proteins. […] Cells stably transduced with non-targeting NT-shRNA or MAPKAPK2-shRNA were treated with vehicle control or 13-cisRA for 14 days. […] Cells stably transduced with non-targeting NT-shRNA or MAPKAPK2-shRNA were treated with vehicle control or 13-cisRA for 14 days. […] Cells stably transduced with non-targeting NT-shRNA (20±2% vs 18±3%, 15 p=0.17) or MAPKAPK2-shRNA (19±4% vs 5±1%, p<0.01) were treated with vehicle control or 13-cisRA for 14 days.
In LHN-R treated with 13-cisRA, mRNA and protein expression of c-MYC was increased while MYCN remained suppressed (FIGS. 4F and 4G).
Thus, Applicants focused on OCT4 and generated a stable clone of LHN-R with POU5F1 knockdown using a lentiviral vector system by transducing five different short hairpin RNA sequences (POU5F1-shRNA-1 to -5) to evaluate the effect of OCT4 on 13-cisRA resistance in neuroblastoma cells. POU5F1 knockdown decreased c-MYC and Cyclin A protein expression in LHN-R cells (FIG. 5G) relative to a non-targeted control shRNA (NT-shRNA).

SMS-LHN (LHN) cells = assay: 13-cisRA response of SMS-LHN neuroblastoma cells; type: cell-based, human; conditions: 5 μM, initial response
Excerpt: as §1
To determine whether increased c-MYC in PD cell lines might be due to 13-cisRA treatment, the SMS-LHN (LHN) human neuroblastoma cell line (MYCN expression without genomic amplification) was treated with a clinically achievable concentration of 13-cisRA (5 μM), following the clinical dosing schedule used in high-risk patients (2 wks on, 2 wks off, x 6 cycles).

NCI-H1048 xenograft = assay: In vivo xenograft activity, NCI-H1048; set-up: species or system mice
Excerpt: FIGS. 13A-13I show in vivo xenograft activity of M3814, a DNA-PK inhibitor, and ABT-263, a BCL-2 inhibitor, in mice carrying H1048, a human small cell lung cancer cell line.
FIGS. 14A-14I show in vivo xenograft activity of D8 (narciclasine), a DNA-PK interaction inhibitor, and ABT-199, a BCL-2 inhibitor, in mice carrying H1048, a human small cell lung cancer cell line.
In vivo xenograft activity was examined for narciclasine or M3814 in combination with ABT-263 or ABT-199 in two xenograft models of small cell lung cancer, NCI-H1048 and NCI-H847.

[1] = test system: small cell lung cancer cell lines; assay: Effect of combination with ABT-737 on c-MYC, cyclin A, PARP and caspase 3; type: cell-based, human; conditions: combined with ABT-737
Experimental: (§2) FIGS. 12A-12F illustrate the combination cytotoxic activity of D8 (i.e., narciclasine) and ABT-737 (a BCL-2 inhibitor) in two small cell lung cancer cell lines. The effect of the combination on c-MYC, pOCT4, OCT4, cyclin A, BCL-2 family of proteins, the cleavage of and caspase-3 and PARP were evaluated.
(§3) Next, Applicants sought to check the activity of narciclasine when combined with other active agents. Venetoclax is currently indicated for chronic lymphocytic leukemia (CLL) and small lymphocytic lymphoma (SLL) patients. […] Thus, Applicants combined narciclasine with ABT-737/ABT-263, pan BCL-2 inhibitors or venetoclax (also known as ABT-199, a BCL-2 inhibitor) to examine the effect of the combination.

[2] = test system: LHN-R, CHLA-20, COG-N-289, COG-N-334, COG-N-415 cells; assay: MK2 inhibitor effect on pOCT4, c-MYC, Cyclin A in neuroblastoma cell lines; type: cell-based, human
Experimental: FIGS. 8A-8H show higher pMK2 and pOCT4^S111 in PD with high c-MYC. […] CHLA-20 was used as the control for the two membranes. […] The values were normalized in two ways by the expression of specific proteins in CHLA-20 and GAPDH. […] The expression of pOCT4^S111, OCT4, c-MYC, and Cyclin A was evaluated in subcellular fractions. […] The cells transduced with a doxycycline-inducible system to exogenously express OCT4WT or OCT4 S111A mutant, treated with doxycycline (Dox) for 48h followed by cycloheximide (CHX) incubation for various times. The whole cell lysates were subjected to sill immunoblotting.
Thus, pMK2-mediated increased c-MYC expression is not limited to tumors exposed to 13-cisRA. When S111 residue of OCT4 was mutated pOCT4^S111 were not detected by immunoblotting (FIG. 8G). […] MK2 inhibition by a small molecule MK2 inhibitor results in decreased pOCT4.

[3] = test system: small cell lung cancer cell lines; assay: Cytotoxicity in 16 small cell lung cancer cell lines; type: cell-based, human
Excerpt: FIGS. 10A-10E show cytotoxicity of D8 (i.e., narciclasine) and several DNA-PK inhibitors (NU7441, M3814, CC-115, AZD7648) in 16 small cell lung cancer cell lines with high (black and gray bars) or low (white bars) c-MYC expression.
In this Example, Applicants examined the cytotoxic activity of narciclasine (i.e., D8) in comparison to DNA-PK inhibitors that are commercially available (including NU7441, M3814, CC-115, and AZD7648) in 16 small cell lung cancer cell lines. […] The IC50 values for narciclasine was less than 100 nM in all cell lines except NCI-H889.

NCI-H847 xenograft = assay: In vivo xenograft activity, NCI-H847; conditions: NCI-H847 xenograft mice
Excerpt: FIGS. […]
In NCI-H847 xenograft mice, narciclasine as a single agent extended the event-free survival of mice compared with vehicle control.

NCI-H847 cell line = assay: Combination cytotoxicity with ABT-737 in NCI-H847; type: cell-based, human; conditions: combined with ABT-737, narciclasine 10 and 20 nM
Experimental: as §2, §3

[4] = test system: NCI-H82, NCI-H847, NCI-H889, NCI-H417 cells; assay: c-MYC, pOCT4S93 and apoptosis markers in small cell lung cancer cell lines; type: cell-based, human; conditions: 0.3 to 2.5 μM, compared to vehicle control
Experimental: FIG. 11 illustrates the effect of narciclasine in c-MYC protein expression. Narciclasine's effect on pOCT4S93 and OCT4 as well as apoptosis (measured by caspase and PARP cleavage) are also assessed in four small cell lung cancer cell lines with high c-MYC expression.
Compared to vehicle control, narciclasine reduced c-MYC and pOCT4S93 and cleaved PARP and caspase 3 in four small cell lung cancer cell lines (NCI-H82, NCI-H847, NCI-H889, NCI-H417) at the concentration range between 0.3 and 2.5 μM. These experimental results, which are summarized in FIG. 11, indicate that narciclasine induces apoptosis as a cell death mechanism in small cell lung cancer cells.

MOLM-14 and NB4 cells = assay: c-MYC expression and apoptosis in MOLM-14 and NB4; type: cell-based, human; conditions: 24 hours, 100 to 200 nM
Excerpt: FIG. 17 provides data illustrating the effect of D8 (narciclasine) in the expression of c-MYC and apoptosis in two human acute myelogenous leukemia, MOLM-14 and NB4.
Of the six cell lines, two cell lines (MOLM-14 and NB4) were used to test the effect of narciclasine in c-MYC expression.

NCI-H1048 cell line = assay: Combination cytotoxicity with ABT-737 in NCI-H1048; type: cell-based, human; conditions: combined with ABT-737, narciclasine 10 and 20 nM
Experimental: as §2, §3

[5] = single agent, compared with control, NCI-H1048 xenografted mice

## CC1=C(/C=C/C(C)=C/C=C/C(C)=C\C(=O)O)C(C)(C)CCC1 [13-cisRA, 13-cis-retinoic acid]
LHN-R cells; LHN-R after six cycles, 10 days of 13-cisRA treatment
  neurite outgrowth and cell cycle arrest: did not show
LHN-R cells; MAPKAPK2-shRNA LHN-R, 13-cisRA 14 days (vehicle 19±4%)
  cell cycle analysis (FIG. 6G): 5±1%
LHN-R cells; NT-shRNA LHN-R, 13-cisRA 14 days (vehicle 20±2%)
  cell cycle analysis (FIG. 6G): 18±3%
LHN-R cells; NT-shRNA-transduced LHN-R, 13-cisRA 14 days (vehicle 26±3%)
  S-phase content: 28±5%
LHN-R cells; POU5F1 knockdown LHN-R, 13-cisRA 14 days (vehicle 23±4%)
  S-phase content: 11±1%
SMS-LHN (LHN) cells
  response to 13-cisRA: arrested proliferation, neurite outgrowth and decreased MYCN protein

## COc1ccc([C@@H](O)c2cc(-c3ncnc4cc(N5CCOCC5)ccc34)c(F)cc2Cl)nn1 [M3814, alpha S-[2-chloro-4-fluoro-5-[7-(4-morpholinyl)-4-quinazolinyl]phenyl]-6-methoxy-3-pyridazinem ethano, reference compound]
NCI-H1048 xenograft; combined with ABT-263, NCI-H1048 xenografted mice
  event-free survival: significantly extended
NCI-H1048 xenograft; [5]
  event-free survival: did not affect
[1]
  c-MYC downregulation effect and cyclin A suppression effect: higher

## Cc1ccc(-c2ccc3c(ccc4sc5c(c43)NC[C@@H](C)NC5=O)n2)cn1 [PF3644022]
[2]
  pOCT4, OCT4S111, c-MYC and Cyclin A: decreased

## O=C1N[C@@H]2C(=C[C@H](O)[C@@H](O)[C@H]2O)c2cc3c(c(O)c21)OCO3 [narciclasine]
[3]; all of 16 small cell lung cancer cell lines except NCI-H889
  IC50: < 0.1 µM
[3]; compared with NU7441, M3814, CC-115, AZD7648
  potency in cytotoxicity relative to the agents tested: highest potency
NCI-H847 xenograft; combination with ABT-199, compared with the single agents
  event-free survival: significantly longer
NCI-H847 xenograft; single agent, compared with vehicle control
  event-free survival: extended
NCI-H847 cell line
  combination cytotoxic activity: synergistic cytotoxic activity
NCI-H1048 xenograft; combined with ABT-199, NCI-H1048 xenografted mice
  event-free survival: significantly extended
NCI-H1048 xenograft; [5]
  event-free survival: did not affect
[4]
  PARP and caspase 3 cleavage: cleaved
  c-MYC and pOCT4S93 expression: reduced
[1]
  c-MYC downregulation effect and cyclin A suppression effect: higher
MOLM-14 and NB4 cells
  PARP and caspase 3 cleavage: observed
  c-MYC expression: substantially decreased
NCI-H1048 cell line
  combination cytotoxic activity: synergistic cytotoxic activity

From patent US12491191B2, “Inhibition of interaction between OCT4 and MAPKAPK2 or DNA-PKcs to regulate c-MYC in cancer” (Texas Tech University System, priority 2019, dated 2025)
